Assay results published in patent publication EP0173944A2, “Enhanced inhibition of yeast cell growth” (MILES INC., priority 1984, dated 1986).
Like-named read-outs stand apart in the source and are kept apart here. *1 amine or outer side, *2 acyl side, *3 side chain or, on linkers, in order; H or OH if unused. Where a SMILES comes first, the peptide text is derived from it. Bridges are numbered along the chain shown (N, C = ends). Roman numbers before positions name the chains, in order. [ ]: non-standard residue; d: D form. Actinocin(9to1) = Cc1c2oc3c(C)ccc(C(=O)[*:1])c3nc-2c(C(=O)[*:2])c(N)c1=O; NMeV = CN[C@H](C(=O)O)C(C)C; Sar = CNCC(=O)O

What was measured:
[1] = tested on: Candida albicans (ATCC 10231); experiment: Filter disc zone-of-inhibition test of yeast growth with or without PBN in the agar overlay; assay type: cell-based
Protocol: (§1) A convenient method for ascertaining the inhibition of growth of yeast cells is as follows. A sample of yeast cells (about 10 7 cells) from a viable overnight culture is added to a molten agar-containing growth medium to which has been added the desired amount of PBN. The resulting suspension is mixed rapidly and then poured onto an agar plate containing a suitable growth medium. The molten agar is allowed to solidify and sterile filter discs are placed on the surface. The solution of antibiotics to be tested are then pipetted onto the discs (50 microliters per disc). The plates are incubated and "read" for antibiotic sensitivity as determined by the zone of inhibition around the disc.
(§2) Saccharomyces cerevisiae strain S288C was grown for 16 hours at 30°C in a liquid medium consisting of 1% (w/v) yeast extract, 2% (w/v) peptone, and 2% (w/v) glucose (YPD medium). One drop of cell suspension from this culture (about 5 x 10^6 to about 1 X 10 ^7 cells) was added to each of 2 tubes containing 3 ml of 0.7% agar, 1% yeast extract, 2% peptone, 2% glycerol (or alternatively 2% glucose as a carbon source) and 0.25 ml of 5 M NaCl maintained at 45-50°C to prevent the agar from solidifying. One tube contained., in addition to the above, 0.5 ml of PBN solution (4.8 A260 units) prepared as described above. The other tube served as a control. The tube contents were mixed rapidly and poured onto a Petri plate containing 25 ml of 2% agar, 1% yeast extract, 2% peptone, and 2% glycerol (YPG medium). After the agar had solidified, sterile filter disks (0.5 inch diameter) were placed on the surface of the agar and solutions of various antibiotics to be tested were pipetted onto the disks. The plates were incubated at 30°C for 48 hours and the inhibition of growth was determined by measuring the area of a zone of clearing formed around the discs (minus the area of the disc).
The procedure described in Example I was repeated with Candida albicans (ATCC 10231). Inhibition of growth of this organism by G-418, rifampicin, cycloheximide and actinomycin D in the presence and absence (control) of PBN was determined.

[2] = tested on: Saccharomyces cerevisiae strain S288C; experiment: as above; assay type: cell-based; details: for inhibition of yeast growth in relation to the carbon source: glycerol or glucose as the carbon source; for Area of Zone of Inhibition, Control / effect on yeast growth, control sample: no PBN; for Area of Zone of Inhibition, Control / Area of Zone of Inhibition, PBN (4.8 A260 units): 30°C, 48 hours; for Area of Zone of Inhibition, PBN (4.8 A260 units): with PBN 4.8 A260 units; for effect on yeast growth, control sample / effect on yeast growth, PBN-containing sample: kanamycin 5.0, streptomycin 2.5, chloramphenicol 0.25 mg/disc, data not shown in Table 1; for effect on yeast growth, PBN-containing sample: with PBN; for Area of Zone of Inhibition: rifampicin 2.5 mg/disc
Protocol: as §1, §2
The procedure described in Example I was repeated with Saccharomyces cerevisiae strain S288C except that increasing amounts of PBN were used. The rifampicin concentration on the discs was maintained at 2.5 mg/disc throughout.

[3] = YPG medium, erythromycin 0.5, G-418 5.0, rifampicin 2.5 mg/disk
[4] = no PBN, G-418 5.0, rifampicin 2.5, cycloheximide 0.5, actinomycin D 0.5 mg/disk
[5] = with PBN 3.0 A260 units per plate in YPD medium, G-418 5.0, rifampicin 2.5, cycloheximide 0.5, actinomycin D 0.5 mg/disk
[6] = YPD medium used for plating, 0.5 mg/disk in dimethylsulfoxide

**Q.** Which results are given for `C[C@@H]1C[C@@H]([C@H](O)CC2CC(=O)NC(=O)C2)C(=O)[C@@H](C)C1` [Cycloheximide]?
**A.** Area of Zone of Inhibition, Control [1]: <3 mm^2; Area of Zone of Inhibition, PBN [1]: 64 mm^2

**Q.** Which “inhibition of yeast growth in relation to the carbon source” value [2] does the source give for `CC[C@H]1OC(=O)[C@H](C)[C@@H](O[C@H]2C[C@@](C)(OC)[C@@H](O)[C@H](C)O2)[C@H](C)[C@@H](O[C@@H]2O[C@H](C)C[C@H](N(C)C)[C@H]2O)[C@](C)(O)C[C@@H](C)C(=O)[C@H](C)[C@@H](O)[C@]1(C)O` [Erythromycin] here?
**A.** effective in this test system only when glycerol (rather than glucose) is used as the carbon source

**Q.** And the “Area of Zone of Inhibition, Control” value [2, 3]?
**A.** 80 mm^2

**Q.** And the “Area of Zone of Inhibition, PBN (4.8 A260 units)” value [2, 3]?
**A.** 227 mm^2

**Q.** How did the “effect on yeast growth, control sample” value [2] turn out when `[H]/N=C(/N)N[C@H]1[C@H](O)[C@@H](O)[C@H](O[C@@H]2O[C@@H](C)[C@](O)(C=O)[C@H]2O[C@@H]2O[C@@H](CO)[C@H](O)[C@@H](O)[C@@H]2NC)[C@@H](N/C(N)=N\[H])[C@@H]1O` [streptomycin] was run?
**A.** no effect

**Q.** And the “effect on yeast growth, PBN-containing sample” value [2]?
**A.** no effect

**Q.** Which “effect on yeast growth, control sample” value [2] does the source give for `NC[C@H]1O[C@H](O[C@H]2[C@H](O)[C@@H](O[C@H]3O[C@H](CO)[C@@H](O)[C@H](N)[C@H]3O)[C@H](N)C[C@@H]2N)[C@H](O)[C@@H](O)[C@@H]1O` [kanamycin] here?
**A.** no effect

**Q.** And the “effect on yeast growth, PBN-containing sample” value [2]?
**A.** no effect

**Q.** Which results are given for `O=C(N[C@H](CO)[C@H](O)c1ccc([N+](=O)[O-])cc1)C(Cl)Cl` [chloramphenicol]?
**A.** effect on yeast growth, control sample [2]: no effect; effect on yeast growth, PBN-containing sample [2]: no effect

**Q.** With `CN[C@@H]1[C@@H](O)[C@@H](O[C@@H]2[C@@H](O)[C@H](O[C@H]3O[C@H]([C@@H](C)O)[C@@H](O)[C@H](O)[C@H]3N)[C@@H](N)C[C@H]2N)OC[C@]1(C)O` [G-418] as the molecule, how does the “inhibition of yeast growth in relation to the carbon source” value [2] read?
**A.** exhibited inhibition of yeast growth regardless of the carbon source

**Q.** What about the “Area of Zone of Inhibition, Control” value [2, 3] of the same molecule?
**A.** 113 mm^2

**Q.** And the “Area of Zone of Inhibition, PBN (4.8 A260 units)” value [2, 3]?
**A.** 490 mm^2

**Q.** And the “Area of Zone of Inhibition, Control” value [1, 4]?
**A.** 20 mm^2

**Q.** What about the “Area of Zone of Inhibition, PBN” value [1, 5] of the same molecule?
**A.** 346 mm^2

**Q.** What does the source list for `Cc1c2oc3c(C)ccc(C(=O)N[C@@H]4C(=O)N[C@H](C(C)C)C(=O)N5CCC[C@H]5C(=O)N(C)CC(=O)N(C)[C@@H](C(C)C)C(=O)O[C@@H]4C)c3nc-2c(C(=O)N[C@@H]2C(=O)N[C@H](C(C)C)C(=O)N3CCC[C@H]3C(=O)N(C)CC(=O)N(C)[C@@H](C(C)C)C(=O)O[C@@H]2C)c(N)c1=O` [Actinomycin D] (I: T[dV]P[Sar][NMeV] / II: T[dV]P[Sar][NMeV]; ester I:1-I:C, II:1-II:C; linker I:N-II:N via Actinocin(9to1))?
**A.** inhibition of yeast growth in relation to the carbon source [2]: exhibited inhibition of yeast growth regardless of the carbon source; Area of Zone of Inhibition, Control [2, 6]: <3 mm^2; Area of Zone of Inhibition, PBN (4.8 A260 units) [2, 6]: 314 mm^2; Area of Zone of Inhibition, Control [1, 4]: <3 mm^2; Area of Zone of Inhibition, PBN [1, 5]: 452 mm^2

**Q.** What does the source list for `CO[C@H]1/C=C/O[C@@]2(C)Oc3c(C)c(O)c4c(O)c(c(/C=N/N5CCN(C)CC5)c(O)c4c3C2=O)NC(=O)/C(C)=C\C=C\[C@H](C)[C@H](O)[C@@H](C)[C@@H](O)[C@@H](C)[C@H](OC(C)=O)[C@@H]1C` [Rifampicin]?
**A.** Area of Zone of Inhibition ([2]; PBN 0.0 A260 units): 0 mm^2; Area of Zone of Inhibition ([2]; PBN 1.0 A260 units): 3.0 mm^2; Area of Zone of Inhibition ([2]; PBN 2.0 A260 units): 20.0 mm^2; Area of Zone of Inhibition ([2]; PBN 3.0 A260 units): 38.5 mm^2; Area of Zone of Inhibition ([2]; PBN 4.0 A260 units): 38.5 mm^2; Area of Zone of Inhibition ([2]; PBN 5.0 A260 units): 50.0 mm^2; Area of Zone of Inhibition ([2]; PBN 6.0 A260 units): 64.0 mm^2; Area of Zone of Inhibition ([2]; PBN 7.0 A260 units): 78.5 mm^2; Area of Zone of Inhibition ([2]; PBN 8.0 A260 units): 71.0 mm^2; Area of Zone of Inhibition ([2]; PBN 9.0 A260 units): 78.5 mm^2; Area of Zone of Inhibition ([2]; PBN 10.0 A260 units): 95.0 mm^2; Area of Zone of Inhibition, Control [2, 3]: <3 mm^2; Area of Zone of Inhibition, PBN (4.8 A260 units) [2, 3]: 95 mm^2; Area of Zone of Inhibition, Control [1, 4]: <3 mm^2; Area of Zone of Inhibition, PBN [1, 5]: 3 mm^2
